Measured values: ChEMBL document CHEMBL3885881, “DrugMatrix”

Species: Rattus norvegicus
Experiment: DrugMatrix - Regimen: Daily Repeat
Format: toxicity, organism-based, Sprague-Dawley
Design: regimen Daily Repeat, gender Male, age 6-8 weeks
Conditions: in vivo, po, route oral GAVAGE, vehicle .5 % CMC; for BASOPHIL / EOSINOPHIL / ERYTHROCYTE COUNT / HEMATOCRIT / HEMOGLOBIN / LEUKOCYTE COUNT / LYMPHOCYTE / MEAN CORPUSCULAR HEMOGLOBIN / MEAN CORPUSCULAR HEMOGLOBIN CONCENTRATION / MEAN CORPUSCULAR VOLUME / MONOCYTE / NEUTROPHIL / PLATELET COUNT: tissue Blood; for ALANINE AMINOTRANSFERASE / ALBUMIN / ALKALINE PHOSPHATASE / ASPARTATE AMINOTRANSFERASE / BLOOD UREA NITROGEN / CHLORIDE / CHOLESTEROL / CREATINE PHOSPHOKINASE / CREATININE / GLUCOSE / PHOSPHORUS / POTASSIUM / SODIUM / TOTAL BILIRUBIN / TOTAL PROTEIN: tissue Plasma
[1] = 0 mg/kg, 72 h, dose level Control, time 3 day
[2] = 0 mg/kg, 120 h, dose level Control, time 5 day
[3] = 150 mg/kg, 72 h, dose level Low, time 3 day
[4] = 150 mg/kg, 120 h, dose level Low, time 5 day
[5] = 1500 mg/kg, 72 h, dose level High, time 3 day
[6] = 1500 mg/kg, 120 h, dose level High, time 5 day

**Q.** What does the source list for C#C[C@]1(O)CC[C@H]2[C@@H]3CCC4=CC(=O)CC[C@]4(C)[C@H]3CC[C@@]21C [ETHISTERONE]?
**A.** BASOPHIL [1]: 0.68%; EOSINOPHIL [1]: 0.46%; ERYTHROCYTE COUNT [1]: 7.15 x10E6/uL; HEMATOCRIT [1]: 45.44%; HEMOGLOBIN [1]: 14.1 G/DL; LEUKOCYTE COUNT [1]: 9.78 x10E3/uL; LYMPHOCYTE [1]: 84.44%; MEAN CORPUSCULAR HEMOGLOBIN [1]: 19.72 pg; MEAN CORPUSCULAR HEMOGLOBIN CONCENTRATION [1]: 31 G/DL; MEAN CORPUSCULAR VOLUME [1]: 63.66 fL; MONOCYTE [1]: 2.14%; NEUTROPHIL [1]: 11.16%; PLATELET COUNT [1]: 1378.2 x10E3/uL; ALANINE AMINOTRANSFERASE [1]: 42.33 u/L; ALBUMIN [1]: 3.8 G/DL; ALKALINE PHOSPHATASE [1]: 388.17 u/L; ASPARTATE AMINOTRANSFERASE [1]: 68 u/L; BLOOD UREA NITROGEN [1]: 16.17 mg/dL; CHLORIDE [1]: 96.67 MEQ/L; CHOLESTEROL [1]: 71 mg/dL; CREATINE PHOSPHOKINASE [1]: 156.17 u/L; CREATININE [1]: 0.57 mg/dL; GLUCOSE [1]: 193.67 mg/dL; PHOSPHORUS [1]: 11.43 mg/dL; POTASSIUM [1]: 7 MEQ/L; SODIUM [1]: 140.33 MEQ/L; TOTAL BILIRUBIN [1]: 0.48 mg/dL; TOTAL PROTEIN [1]: 6.8 G/DL; BASOPHIL [2]: 1.47%; EOSINOPHIL [2]: 1%; ERYTHROCYTE COUNT [2]: 7.12 x10E6/uL; HEMATOCRIT [2]: 45.47%; HEMOGLOBIN [2]: 14.1 G/DL; LEUKOCYTE COUNT [2]: 11.38 x10E3/uL; LYMPHOCYTE [2]: 82.57%; MEAN CORPUSCULAR HEMOGLOBIN [2]: 19.82 pg; MEAN CORPUSCULAR HEMOGLOBIN CONCENTRATION [2]: 31.02 G/DL; MEAN CORPUSCULAR VOLUME [2]: 63.88 fL; MONOCYTE [2]: 2.2%; NEUTROPHIL [2]: 11.97%; PLATELET COUNT [2]: 1267 x10E3/uL; ALANINE AMINOTRANSFERASE [2]: 38 u/L; ALBUMIN [2]: 3.72 G/DL; ALKALINE PHOSPHATASE [2]: 391 u/L; ASPARTATE AMINOTRANSFERASE [2]: 65.83 u/L; BLOOD UREA NITROGEN [2]: 14.17 mg/dL; CHLORIDE [2]: 107.67 MEQ/L; CHOLESTEROL [2]: 61 mg/dL; CREATINE PHOSPHOKINASE [2]: 148.33 u/L; CREATININE [2]: 0.57 mg/dL; GLUCOSE [2]: 177.17 mg/dL; PHOSPHORUS [2]: 12.07 mg/dL; POTASSIUM [2]: 7.2 MEQ/L; SODIUM [2]: 151.5 MEQ/L; TOTAL BILIRUBIN [2]: 0.58 mg/dL; TOTAL PROTEIN [2]: 6.72 G/DL; BASOPHIL [3]: 0.73%; EOSINOPHIL [3]: 0.33%; ERYTHROCYTE COUNT [3]: 6.6 x10E6/uL; HEMATOCRIT [3]: 41.67%; HEMOGLOBIN [3]: 13.17 G/DL; LEUKOCYTE COUNT [3]: 10.76 x10E3/uL; LYMPHOCYTE [3]: 79.57%; MEAN CORPUSCULAR HEMOGLOBIN [3]: 19.9 pg; MEAN CORPUSCULAR HEMOGLOBIN CONCENTRATION [3]: 31.57 G/DL; MEAN CORPUSCULAR VOLUME [3]: 63.13 fL; MONOCYTE [3]: 3.47%; NEUTROPHIL [3]: 14.4%; PLATELET COUNT [3]: 1218.67 x10E3/uL; ALANINE AMINOTRANSFERASE [3]: 35.67 u/L; ALBUMIN [3]: 3.57 G/DL; ALKALINE PHOSPHATASE [3]: 319.33 u/L; ASPARTATE AMINOTRANSFERASE [3]: 62.67 u/L; BLOOD UREA NITROGEN [3]: 13.33 mg/dL; CHLORIDE [3]: 95.33 MEQ/L; CHOLESTEROL [3]: 60 mg/dL; CREATINE PHOSPHOKINASE [3]: 132 u/L; CREATININE [3]: 0.5 mg/dL; GLUCOSE [3]: 185.33 mg/dL; PHOSPHORUS [3]: 12.3 mg/dL; POTASSIUM [3]: 6.3 MEQ/L; SODIUM [3]: 138.33 MEQ/L; TOTAL BILIRUBIN [3]: 0.4 mg/dL; TOTAL PROTEIN [3]: 6.37 G/DL; BASOPHIL [4]: 0.93%; EOSINOPHIL [4]: 0.27%; ERYTHROCYTE COUNT [4]: 7.3 x10E6/uL; HEMATOCRIT [4]: 45.67%; HEMOGLOBIN [4]: 14.1 G/DL; LEUKOCYTE COUNT [4]: 8.86 x10E3/uL; LYMPHOCYTE [4]: 86.5%; MEAN CORPUSCULAR HEMOGLOBIN [4]: 19.3 pg; MEAN CORPUSCULAR HEMOGLOBIN CONCENTRATION [4]: 30.87 G/DL; MEAN CORPUSCULAR VOLUME [4]: 62.6 fL; MONOCYTE [4]: 2.7%; NEUTROPHIL [4]: 8.87%; PLATELET COUNT [4]: 1265.33 x10E3/uL; ALANINE AMINOTRANSFERASE [4]: 35.67 u/L; ALBUMIN [4]: 3.6 G/DL; ALKALINE PHOSPHATASE [4]: 382.67 u/L; ASPARTATE AMINOTRANSFERASE [4]: 57.67 u/L; BLOOD UREA NITROGEN [4]: 14.33 mg/dL; CHLORIDE [4]: 105.67 MEQ/L; CHOLESTEROL [4]: 39.67 mg/dL; CREATINE PHOSPHOKINASE [4]: 113.33 u/L; CREATININE [4]: 0.57 mg/dL; GLUCOSE [4]: 167 mg/dL; PHOSPHORUS [4]: 11.77 mg/dL; POTASSIUM [4]: 7.4 MEQ/L; SODIUM [4]: 151 MEQ/L; TOTAL BILIRUBIN [4]: 0.4 mg/dL; TOTAL PROTEIN [4]: 6.53 G/DL; BASOPHIL [5]: 0.3%; EOSINOPHIL [5]: 0.23%; ERYTHROCYTE COUNT [5]: 7.32 x10E6/uL; HEMATOCRIT [5]: 46.8%; HEMOGLOBIN [5]: 15 G/DL; LEUKOCYTE COUNT [5]: 13.73 x10E3/uL; LYMPHOCYTE [5]: 85.93%; MEAN CORPUSCULAR HEMOGLOBIN [5]: 20.53 pg; MEAN CORPUSCULAR HEMOGLOBIN CONCENTRATION [5]: 32.13 G/DL; MEAN CORPUSCULAR VOLUME [5]: 63.97 fL; MONOCYTE [5]: 2.43%; NEUTROPHIL [5]: 9.77%; PLATELET COUNT [5]: 1394 x10E3/uL; ALANINE AMINOTRANSFERASE [5]: 25.33 u/L; ALBUMIN [5]: 3.93 G/DL; ALKALINE PHOSPHATASE [5]: 316.67 u/L; ASPARTATE AMINOTRANSFERASE [5]: 60.33 u/L; BLOOD UREA NITROGEN [5]: 13.67 mg/dL; CHLORIDE [5]: 96 MEQ/L; CHOLESTEROL [5]: 34 mg/dL; CREATINE PHOSPHOKINASE [5]: 152 u/L; CREATININE [5]: 0.43 mg/dL; GLUCOSE [5]: 166.67 mg/dL; PHOSPHORUS [5]: 12.2 mg/dL; POTASSIUM [5]: 6.83 MEQ/L; SODIUM [5]: 142 MEQ/L; TOTAL BILIRUBIN [5]: 0.3 mg/dL; TOTAL PROTEIN [5]: 7.17 G/DL; BASOPHIL [6]: 0.93%; EOSINOPHIL [6]: 0.27%; ERYTHROCYTE COUNT [6]: 7.53 x10E6/uL; HEMATOCRIT [6]: 48.07%; HEMOGLOBIN [6]: 14.97 G/DL; LEUKOCYTE COUNT [6]: 7.76 x10E3/uL; LYMPHOCYTE [6]: 80.6%; MEAN CORPUSCULAR HEMOGLOBIN [6]: 19.97 pg; MEAN CORPUSCULAR HEMOGLOBIN CONCENTRATION [6]: 31.2 G/DL; MEAN CORPUSCULAR VOLUME [6]: 63.93 fL; MONOCYTE [6]: 3.3%; NEUTROPHIL [6]: 13.73%; PLATELET COUNT [6]: 1362.33 x10E3/uL; ALANINE AMINOTRANSFERASE [6]: 31.67 u/L; ALBUMIN [6]: 3.73 G/DL; ALKALINE PHOSPHATASE [6]: 496 u/L; ASPARTATE AMINOTRANSFERASE [6]: 57.33 u/L; BLOOD UREA NITROGEN [6]: 11 mg/dL; CHLORIDE [6]: 105.67 MEQ/L; CHOLESTEROL [6]: 35.33 mg/dL; CREATINE PHOSPHOKINASE [6]: 132.67 u/L; CREATININE [6]: 0.57 mg/dL; GLUCOSE [6]: 185.67 mg/dL; PHOSPHORUS [6]: 13.8 mg/dL; POTASSIUM [6]: 7.47 MEQ/L; SODIUM [6]: 151.33 MEQ/L; TOTAL BILIRUBIN [6]: 0.33 mg/dL; TOTAL PROTEIN [6]: 6.83 G/DL
